The target in assay [1] is T1, EphrinB2-EphB2 (Homo sapiens, UniProt P29323).
T1 construct: soluble human EphB1-His, EphB2-His, and EphB4-His ectodomains; commercially available human EphrinB1-Fc (EB1), EphrinB2-Fc (EB2), and EphrinB3-Fc (EB3) ectodomain proteins; purchased
T1 sequence (P29323 19-543 limits assumed): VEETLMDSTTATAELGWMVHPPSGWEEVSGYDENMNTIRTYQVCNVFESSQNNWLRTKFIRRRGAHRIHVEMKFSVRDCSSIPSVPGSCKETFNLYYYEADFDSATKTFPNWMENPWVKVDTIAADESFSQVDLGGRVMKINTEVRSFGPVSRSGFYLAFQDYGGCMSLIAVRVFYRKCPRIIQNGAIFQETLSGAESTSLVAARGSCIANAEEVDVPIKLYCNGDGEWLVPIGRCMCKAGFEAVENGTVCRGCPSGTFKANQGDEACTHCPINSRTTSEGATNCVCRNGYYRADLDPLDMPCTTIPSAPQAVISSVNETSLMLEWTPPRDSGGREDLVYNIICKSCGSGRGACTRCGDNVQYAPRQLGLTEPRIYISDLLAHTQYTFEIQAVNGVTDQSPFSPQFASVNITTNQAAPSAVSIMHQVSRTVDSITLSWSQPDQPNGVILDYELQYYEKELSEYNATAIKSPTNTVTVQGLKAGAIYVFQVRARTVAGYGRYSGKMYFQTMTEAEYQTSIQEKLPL
Put plainly: Octet tetramerization inhibition, immobilized human EphrinB2 binding to 50 nM soluble human EphB2. (In BLI a coated tip is dipped into the sample, and binding shifts an interference pattern.)

The target of assay [2] is T1, EphrinB2-EphB2. Briefly: Octet 80 sec association/500 sec dissociation, immobilized human EphrinB2-Fc binding to soluble human EphB2-His. The settings on record: for IC50 / inhibition / inhibition at 3.2 µM: EphB2; for inhibition: highest dose, typically 3.2 μM; for inhibition of EphrinB2-EphB interactions: 3.2 μM, EphB1, EphB2 and EphB4; for inhibition at 3.2 µM: 25 nM EphB2, 3.2 μM compound, A20-I as max control, 0* = less than 0, no inhibition; for EphB2 Inhibition Percent, Inhibition of Association-Dissociation: at 3.2 μM and 580 seconds; for EphB2 Inhibition Percent, Inhibition of Association-Dissociation / EphB2 Inhibition Percent, Inhibition of Association ONLY: immobilized human EphrinB2, 25 nM soluble human EphB2; for EphB2 Inhibition Percent, Inhibition of Association ONLY: at 3.2 μM and 80 seconds. Summed up:
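EphrinB2-Fc captured on AHC biosensors, then soluble His-tagged EphB ectodomain (25 nM for % inhibition runs) associated 80 s and dissociated 500 s in PBS, 0.05% Tween-20, 1% DMSO ± compound. Compounds tested at 0.1–3.2 μM with a 10 μM max standard; IC50 from AUC of full traces or at 75 s and 135 s.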

Where [3] appears, read: Absolute AUC/IC50, Table A, EphrinB2-EphB2.
The mark [4] stands for this setting: Absolute Association IC50 (300 sec), Table A, EphrinB2-EphB2.
Where [5] appears, read: Absolute Dissociation IC50 (450 sec), Table A, EphrinB2-EphB2.
Where [6] appears, read: Relative AUC/IC50, Table A, EphrinB2-EphB2, compound 7: association only.
Setting [7] is: Relative Association IC50 (300 sec), Table A, EphrinB2-EphB2.
Where [8] appears, read: Relative Dissociation IC50 (450 sec), Table A, EphrinB2-EphB2.
[9] abbreviates: tetramerization inhibitor IC50 (relative), association step, surmountable tetramer.
[10] abbreviates: read-out: % Inhibition: Association + Dissociation (160 sec).
Setting [11] is: read-out: % Inhibition: Association ONLY (80 sec).

The results in this text go back to US20260374739A1, “SMALL MOLECULAR WEIGHT CHEMICAL COMPOUND TO ANTAGONIZE EPH-EPHRIN TETRAMERIZATION AND INHIBIT BIDIRECTIONAL SIGNALING” (THE BOARD OF REGENTS OF THE UNIVERSITY OF TEXAS SYSTEM, priority 2022, published 2026).

SMILES strings stand for the structures. “And” between values parts separate entries of the source, which are not always exact repeats. Identical values can stand only once. Like-named read-outs stand apart in the source and are kept apart here. Marks after values point to notes of the source that are not given here.

On to `Oc1c(Br)cc(CN2CCN(c3ccc(Br)cc3)CC2)c2cccnc12` [Compound 28, 7-bromo-5-((4-(4-bromophenyl)piperazin-1-yl)methyl)quinolin-8-ol], for which the “inhibition of unsurmountable tetramer” value on EphrinB2-EphB2 [1] is reported as 100%. The “disruption of unsurmountable tetramer” value on EphrinB2-EphB2 [1] (0.8-3.2 μM) is given as “complete loss of this structure at 3.2 μM”. The IC50 (commonly the concentration that inhibits the measured activity by half) on EphrinB2-EphB2 [1] (setting [3]) is 360 nM and 530 nM and 590 nM and 510 nM; at EphrinB2-EphB2 [1] (setting [4]), 380 nM and 580 nM and 680 nM and 780 nM; at EphrinB2-EphB2 [1] (setting [5]), 350 nM and 400 nM and 580 nM and 630 nM; on EphrinB2-EphB2 [1] (setting [6]) it was 220 nM and 370 nM and 230 nM and 320 nM; at EphrinB2-EphB2 [1] (setting [7]), 300 nM and 330 nM (2×) and 400 nM; on EphrinB2-EphB2 [1] (setting [8]) it was 300 nM and 420 nM and 370 nM. Also, the IC50 on EphrinB2-EphB2 [1] (setting [9]) is about 300 nM; at EphrinB2-EphB2 [1] (tetramerization inhibitor IC50, surmountable tetramer) it was about 300 nM; on EphrinB2-EphB2 [2] (Association (75″), read-out: Absolute IC50), 320 nM; on EphrinB2-EphB2 [2] (Association (75″), read-out: Relative IC50) it was 280 nM; at EphrinB2-EphB2 [2] (Association (AUC), read-out: Absolute IC50) it was 360 nM; at EphrinB2-EphB2 [2] (Association (AUC), read-out: Relative IC50) it was 280 nM. Further, the IC50 on EphrinB2-EphB2 [2] (Dissociation (135″), read-out: Absolute IC50) amounted to 250 nM; on EphrinB2-EphB2 [2] (Dissociation (135″), read-out: Relative IC50), 230 nM; at EphrinB2-EphB2 [2] (Full AUC, read-out: Absolute IC50) it was 200 nM; at EphrinB2-EphB2 [2] (Full AUC, read-out: Relative IC50) it was 180 nM. Besides, the results for the inhibition on EphrinB2-EphB2 [2] (read-out: Association (% Inhibited (AUC))) and on EphrinB2-EphB2 [2] (read-out: Association + Dissociation (% Inhibited (AUC))) were 62.5% and 78.7%, respectively.

`Oc1ccc(CN2CCOCC2)c2cccnc12` [Compound 1, 5-(morpholinomethyl)quinolin-8-ol]: the “tetramerization inhibitor activity” value on EphrinB2-EphB2 [1] was “only weak ability to inhibit formation of the EB2-EphB2 tetramer”. For the same compound, the IC50 on EphrinB2-EphB2 [1] (setting [3]), on EphrinB2-EphB2 [1] (setting [4]), at EphrinB2-EphB2 [1] (setting [5]), on EphrinB2-EphB2 [1] (setting [6]), at EphrinB2-EphB2 [1] (setting [7]) and on EphrinB2-EphB2 [1] (setting [8]) was over 1600 nM each time. This compound also came in with an IC50 at EphrinB2-EphB2 [1] (setting [9]) of over 1600 nM. The “inhibition of EphrinB2-EphB interactions” value on EphrinB2-EphB2 [2] is recorded as “generally less active towards all three interactions”.

In the case of `OCc1ccc2c(CN3CCOCC3)cc(Br)c(O)c2n1` [Compound 13, 7-bromo-2-(hydroxymethyl)-5-(morpholinomethyl)quinolin-8-ol], the concentration for half-maximal inhibition (IC50) at EphrinB2-EphB2 [1] (setting [3]) is over 3200 nM; on EphrinB2-EphB2 [1] (setting [4]), over 3200 nM; on EphrinB2-EphB2 [1] (setting [5]) it was 2510 nM; on EphrinB2-EphB2 [1] (setting [6]) it was 1450 nM; at EphrinB2-EphB2 [1] (setting [7]) it was 1410 nM; at EphrinB2-EphB2 [1] (setting [8]), 1540 nM. At EphrinB2-EphB2 [1] (setting [9]), this compound gave an IC50 of about 1600 nM. For the same compound, the results for the inhibition at 3.2 µM on EphrinB2-EphB2 [2] (setting [10]) and on EphrinB2-EphB2 [2] (setting [11]) were 68.4% and 50.5%, respectively.

`COc1ccc2[nH]cc(C(=O)N3CCOCC3)c2c1` [Compound 63, (5-methoxy-1H-indol-3-yl)(morpholino)methanone]: the IC50 at EphrinB2-EphB2 [1] (setting [3]), at EphrinB2-EphB2 [1] (setting [4]), on EphrinB2-EphB2 [1] (setting [5]), at EphrinB2-EphB2 [1] (setting [6]), on EphrinB2-EphB2 [1] (setting [7]) and at EphrinB2-EphB2 [1] (setting [8]) was over 3200 nM throughout. Moreover, at EphrinB2-EphB2 [2], the “inhibition of EphrinB2-EphB interactions” value is reported as “showed no activity across the board”. Also, the values for the inhibition at 3.2 µM on EphrinB2-EphB2 [2] (setting [10]) and at EphrinB2-EphB2 [2] (setting [11]) were 1.3% and 4.3%, respectively. In addition, the “EphB2 Inhibition Percent, Inhibition of Association-Dissociation” value on EphrinB2-EphB2 [2] is 0*%.

As for `Oc1ccc(CN2CCCCC2)c2cccnc12` [Compound 68, 5-(piperidin-1-ylmethyl)quinolin-8-ol, reference compound], at EphrinB2-EphB2 [2], the “EphB2 Inhibition Percent, Inhibition of Association ONLY” value is listed as 54.9% and the “EphB2 Inhibition Percent, Inhibition of Association-Dissociation” value is recorded as 72.9%.

With `Oc1c(Br)cc(CN2CCN(c3ccc(Br)cc3)CC2)c2cccnc12` [Compound 30, 7-bromo-5-((4-(4-bromophenyl)piperazin-1-ium-1-yl)methyl)-8-hydroxyquinolin-1-ium chloride], the IC50 is 260 nM on EphrinB2-EphB2 [1] (setting [3]); 600 nM at EphrinB2-EphB2 [1] (setting [4]); 290 nM and 260 nM on EphrinB2-EphB2 [1] (setting [6]); 340 nM on EphrinB2-EphB2 [1] (setting [8]). Moreover, the “EphB2 Inhibition Percent, Inhibition of Association ONLY” value at EphrinB2-EphB2 [2] was 57.7% and 62.5%. Besides, the “EphB2 Inhibition Percent, Inhibition of Association-Dissociation” value on EphrinB2-EphB2 [2] is 72.9% and 78.7%.

With `COCc1cc(CN2CCN(C)CC2)c(O)c2ncccc12` [Compound 77, 5-(methoxymethyl)-7-((4-methylpiperazin-1-yl)methyl)quinolin-8-ol, reference compound], on EphrinB2-EphB2 [2], the “EphB2 Inhibition Percent, Inhibition of Association ONLY” value worked out at 5.4% and the “EphB2 Inhibition Percent, Inhibition of Association-Dissociation” value worked out at 35.1%.
